From US20210116454A1, “METHODS FOR TREATING A HEMATOLOGICAL CANCER AND THE USE OF COMPANION BIOMARKERS FOR 2-(2,6-DIOXOPIPERIDIN-3-YL)-4-((2-FLUORO-4-((3-MORPHOLINOAZETIDIN-1-YL)METHYL)BENZYL)AMINO)ISOINDOLINE-1,3-DIONE” (CELGENE CORPORATION, priority 2019, published 2021)

Columns and labels:
BT system = assay: BioMAP BT system (B cells and PBMCs); assay type: cell-based, human; conditions: 0.01, 0.1, 1, and 10 μM
Description: (§1) The activity of Compound 1 was profiled in a panel of human primary cell-based assays, modeling complex tissue and disease biology of organs (vasculature, immune system, skin, lung) and general tissue biology using the BioMAP System (DiscoveRx, Fremont, Calif.).
(§2) The BioMAP System consists of twelve primary human monoculture or co-culture systems in stimulated and non-stimulated control conditions (FIG. 4, panel A). When tested at 0.01, 0.1, 1, and 10 μM, Compound 1 mediated changes in key biomarker activities. Specifically, the profiles for Compound 1 reflected selective anti-inflammatory and immunomodulatory impact on monocyte (LPS) and T cell dependent B cell activation responses (BT). Treatment with Compound 1 led to a decrease in interleukin 8 (IL-8), interleukin 1a (IL-1a), secreted prostaglandin E2 (sPGE2), and secreted tumor necrosis factor alpha (sTNFα) in the LPS system, which consisted of peripheral blood mononuclear cells (PBMCs) and endothelial cells. Furthermore, secreted IgG (sIgG), secreted interleukin 17A (sIL-17A), secreted interleukin 17F (sIL-17F), and sTNFα decreased, whereas secreted interleukin 2 (sIL-2) and secreted interleukin 6 (sIL-6) increased, in the BT system, which was comprised of B cells and PBMCs.

SU-DHL10 CRBN^-/- cells = assay: Cell proliferation in CRBN^-/- (knock out) cells, 5 days; assay type: cell-based; conditions: Homo sapiens, 120 h
Source text: (§3) The activated B-cell (ABC) and MYC/BCL2 double expressor cell lines SU-DHL-2 and RIVA, the germinal center B-cell (GCB) and MYC/BCL2 double hit cell lines (and expressing BCL6) Karpas-422, SU-DHL-10, WSU-DLCL2, and the primary mediastinal B-cell lymphoma (PMBL) cell line Farage were infected with a CAS9 expressing lentivirus construct to generate the control CAS9 expressing cells. The Cas9 cells had wild type cereblon expression (CRBN^WT).
(§4) To generate the cereblon knock out cells (CRBN^−/−), the individual control CAS9 cells were infected with a construct expressing a subgenomic single guide RNA (sgRNA). Western blot analysis confirmed the absence of cereblon protein in the CRBN^−/− cells, relative to the levels of the housekeeping protein β-tubulin. The CRBN^WT and CRBN^−/− cells were treated with increasing concentrations of Compound 1 for five days.

WSU-DLCL2 CRBN^-/- cells = assay: as above; assay type: cell-based; conditions: Homo sapiens, WSUDLCL2, 120 h
Source text: as §3, §4

RIVA CRBN^-/- cells = assay: as above; assay type: cell-based; conditions: 120 h
Source text: as §3, §4

Farage CRBN^-/- cells = assay: as above; assay type: cell-based; conditions: 120 h
Source text: as §3, §4

[1] = tested on: Karpas-422 CRBN^-/- cells; assay: as above; assay type: cell-based; conditions: Homo sapiens, 120 h
Source text: as §3, §4

SU-DHL2 CRBN^-/- cells = assay: as above; assay type: cell-based; conditions: Homo sapiens, SU-DHL-2, 120 h
Source text: as §3, §4

Karpas-422 CRBN^WT cells = assay: Cell proliferation in CRBN^WT (CAS9 control) cells, 5 days; assay type: cell-based; conditions: Homo sapiens, 120 h
Source text: as §3, §4

SU-DHL2 CRBN^WT cells = assay: as above; assay type: cell-based; conditions: Homo sapiens, SU-DHL-2, 120 h
Source text: as §3, §4

Farage CRBN^WT cells = assay: as above; assay type: cell-based; conditions: 120 h
Source text: as §3, §4

RIVA CRBN^WT cells = assay: as above; assay type: cell-based; conditions: 120 h
Source text: as §3, §4

SU-DHL10 CRBN^WT cells = assay: as above; assay type: cell-based; conditions: Homo sapiens, 120 h
Source text: as §3, §4

WSU-DLCL2 CRBN^WT cells = assay: as above; assay type: cell-based; conditions: Homo sapiens, WSUDLCL2, 120 h
Source text: as §3, §4

Karpas-422 cells = assay: Western blot of substrates and downstream proteins; assay type: cell-based
Description: To confirm that the rapid degradation of substrates and induction of apoptosis by Compound 1 is not unique to SU-DHL2 cells, TMD8 (ABC cell line) and Karpas-422 (GCB-cell line) cells were treated with vehicle control (DMSO) or Compound 1 at the times and concentrations indicated (FIG. 6).
In a second experiment, we confirmed that Compound 1 (100 nM) treatment of TMD8 produced a large reduction of Aiolos, Ikaros, and ZFP91 at the 24-hour timepoint. […] In Karpas-422 cells, Compound 1 also produced a reduction of Aiolos, Ikaros, and ZFP91 at the 24-hour timepoint (FIG. 6, panel D). At the 48-hour timepoint, Compound 1 increased the abundance of the proliferation inhibitor p21 and the interferon-stimulated genes IRF7, IFIT3, and DDX58, and reduced the expression of MYC (FIG. 6, panel D).

SU-DHL-2^CRBNWT cells = assay: Western blot time- and concentration-response of endogenous substrates; assay type: cell-based; conditions: 10 and 100 nM, entire course of treatment
Source text: However, Compound 1 had no activity in SU-DHL-2^CRBN−/− cells, indicating the requirement of cereblon for induction of apoptosis by Compound 1 in DLBCL (FIG. 5 C).

MyoF system = assay: BioMAP MyoF system (lung fibroblasts); assay type: cell-based, human; conditions: 0.01, 0.1, 1, and 10 μM
Description: as §1, §2

[2] = tested on: Peripheral blood mononuclear cells derived from four healthy donors; assay: Viability of CD3-stimulated PBMCs (Viobility Fixable Dye, flow cytometry); assay type: cell-based
Description: To establish that this was due to the effect of the compound in promoting Ikaros degradation and not because of a lack of cell proliferation or viability of the CD3-stimulated PBMCs, the effect of Compound 1 on their viability was assessed by flow cytometry. […] Peripheral blood mononuclear cells derived from four healthy donors were exposed to Compound 1 at concentrations of 0.1, 1, 10, or 100 nM for 3, 4, or 7 days, and viability was measured by staining with Viobility™ Fixable Dye. […] The trend in cell viability continued through day 7, with Compound 1 treatment not effecting the viability of the PBMCs.

**Q.** What does the source list for `O=C1CC[C@H](N2C(=O)c3cccc(NCc4ccc(CN5CC(N6CCOCC6)C5)cc4F)c3C2=O)C(=O)N1` [Compound 1, (S)-2-(2,6-dioxopiperidin-3-yl)-4-((2-fluoro-4-((3-morpholinoazetidin-1-yl)methyl)benzyl)amino)isoindoline-1,3-dione]?
**A.** sIL-2 and sIL-6 (BT system): increased; sIgG, sIL-17A, sIL-17F, and sTNFα (BT system): decreased; IC50 (SU-DHL10 CRBN^-/- cells): > 10000 nM; IC50 (WSU-DLCL2 CRBN^-/- cells): > 10000 nM; IC50 (RIVA CRBN^-/- cells): > 10000 nM; IC50 (Farage CRBN^-/- cells): > 10000 nM; IC50 [1]: > 10000 nM; IC50 (SU-DHL2 CRBN^-/- cells): > 10000 nM; Emax (Karpas-422 CRBN^WT cells): 5%; IC50 (Karpas-422 CRBN^WT cells): 15 nM; Emax (SU-DHL2 CRBN^WT cells): 1%; IC50 (SU-DHL2 CRBN^WT cells): 2.5 nM; Emax (Farage CRBN^WT cells): 0.5%; IC50 (Farage CRBN^WT cells): 8 nM; Emax (RIVA CRBN^WT cells): 30%; IC50 (RIVA CRBN^WT cells): 8 nM; Emax (SU-DHL10 CRBN^WT cells): 0%; IC50 (SU-DHL10 CRBN^WT cells): 35 nM; Emax (WSU-DLCL2 CRBN^WT cells): 19%; IC50 (WSU-DLCL2 CRBN^WT cells): 40 nM; Ikaros, Aiolos, and ZFP91 protein expression (Karpas-422 cells; Karpas-422, 10 and 100 nM, entire course of treatment): complete suppression; MYC reduction (Karpas-422 cells; Karpas-422, after 72 hours): 50%; Ikaros, Aiolos, and ZFP91 protein expression (SU-DHL-2^CRBNWT cells): complete suppression; collagen-I and -III expression (MyoF system): compelling inhibition; plasminogen activator inhibitor-1 (PAI-1) expression (MyoF system): slight inhibition; effect on PBMC viability ([2]; 0.1, 1, 10, or 100 nM for 3, 4, or 7 days): no significant effect; viable PBMCs ([2]; day 3 and day 4, 0.1, 1, 10, or 100 nM): roughly 80%
